Patent US11214594B2, “Antimicrobial peptide having synergistic antibacterial effect with antibiotics on multidrug resistant bacteria, and use thereof” (priority 2016, dated 2022)
Like-named read-outs stand apart in the source and are kept apart here. Where a SMILES comes first, the peptide text is derived from it.

What was measured:
E. coli [1] = assay: microbe, parasite or virus in culture; assay type: cell-based, Escherichia coli; conditions: 16 h
In short: (§1)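 Broth microdilution in MH medium: bacterial strains diluted to 2×10^6 CFU were mixed with equal volumes of peptide serially diluted twofold in MH medium.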

MDREC 1229 [2] = assay: microbe, parasite or virus in culture; assay type: cell-based, Escherichia coli
In short: as §1

MDRAB 12036 = assay type: cell-based, Acinetobacter baumannii
In short: as §1

MDRST 8007 = assay: Minimal inhibitory concentration (MIC), single agent; assay type: cell-based, Salmonella typhimurium; conditions: agent alone
In short: as §1

B. subtilis = assay: microbe, parasite or virus in culture; assay type: cell-based, Bacillus subtilis
In short: as §1

S. aureus = assay: microbe, parasite or virus in culture; assay type: cell-based, Staphylococcus aureus
In short: as §1

E. coli [3] = assay: MIC of antibiotic during combined treatment with antimicrobial peptide; assay type: cell-based, Escherichia coli; conditions: for Antibiotic MIC, Erythromycin / Antibiotic MIC, Linezolid / Antibiotic MIC, Vancomycin: E. coli
In short: (§2)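 First, antibiotic solution is diluted with MH medium; next, the dilution is dispensed into wells containing peptide; finally, the orientation is swapped and MIC of each mixture determined.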

MDREC 1229 [4] = assay: as above; assay type: cell-based, Escherichia coli
In short: (§3)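 Broth microdilution in MH medium; strains were diluted to 2×10^6 CFU per ml before plating. Peptide was serially diluted stepwise at 2:1 starting from its MIC, and MH-diluted antibiotic was then added to determine MIC. The reversed arrangement was also tested.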

A. baumannii [5] = assay: as above; assay type: cell-based, Acinetobacter baumannii; conditions: for Antibiotic MIC, Erythromycin / Antibiotic MIC, Linezolid / Antibiotic MIC, Vancomycin: A. baumannii
In short: as §2

E. coli [6] = assay type: cell-based, Escherichia coli; conditions: E. coli
In short: as §3

MDREC 1229 [7] = assay type: cell-based, Escherichia coli
In short: as §3

A. baumannii [8] = assay: MIC of antimicrobial peptide during combined treatment with antibiotic; assay type: cell-based, Acinetobacter baumannii
In short: as §3

MDRAB 12035 = assay: as above; assay type: cell-based, Acinetobacter baumannii
In short: as §3

[9] = peptide treatment concentration 1 μg/ml
[10] = peptide treatment concentration 2 μg/ml
[11] = peptide treatment concentration 4 μg/ml
[12] = peptide treatment concentration 6 μg/ml
[13] = peptide treatment concentration 8 μg/ml
[14] = peptide treatment concentration 16 μg/ml
[15] = peptide treatment concentration 32 μg/ml
[16] = peptide treatment concentration 64 μg/ml
[17] = combined with peptide at 1 μg/ml
[18] = combined with peptide at 2 μg/ml
[19] = combined with peptide at 4 μg/ml
[20] = combined with peptide at 6 μg/ml
[21] = combined with peptide at 8 μg/ml
[22] = combined with peptide at 16 μg/ml
[23] = combined with peptide at 32 μg/ml
[24] = combined with peptide at 64 μg/ml
[25] = linezolid 64 μg/ml (Conc./MIC 1/8)
[26] = linezolid 512 μg/ml (Conc./MIC 1)
[27] = vancomycin 512 μg/ml (Conc./MIC 1/2)
[28] = vancomycin 1024 μg/ml (Conc./MIC 1)
[29] = erythromycin 4 μg/ml (Conc./MIC 1/8)
[30] = erythromycin 8 μg/ml (Conc./MIC 1/4)
[31] = erythromycin 16 μg/ml (Conc./MIC 1/2)
[32] = erythromycin 32 μg/ml (Conc./MIC 1)

CC[C@H](C)[C@H](NC(=O)[C@H](CCCCN)NC(=O)[C@H](Cc1c[nH]c2ccccc12)NC(=O)[C@@H](N)CCCNC(=N)N)C(=O)N[C@@H](Cc1ccccc1)C(=O)N[C@@H](CCCCN)C(=O)N[C@@H](CCCCN)C(=O)N[C@H](C(=O)N1CCC[C@H]1C(=O)N[C@@H](CCCCN)C(=O)N[C@@H](Cc1ccccc1)C(=O)N[C@@H](CC(C)C)C(=O)N[C@@H](Cc1c[nH]cn1)C(=O)N[C@@H](CCC(=O)O)C(=O)N[C@@H](C)C(=O)N[C@@H](CCCCN)C(=O)N[C@@H](CCCCN)C(=O)N[C@@H](Cc1c[nH]c2ccccc12)C(N)=O)[C@@H](C)CC [PapMA-14, RWK IFK KIP KFL HEA KKW-NH2] (H-RWKIFKKIPKFLHEAKKW-NH2; N-terminus assumed)
0.5 µg/mL: Antibiotic MIC, Erythromycin (A. baumannii [5]; [20]) | Antibiotic MIC, Linezolid (A. baumannii [5]; [21]) | Peptide MIC during treatment with antibiotic (A. baumannii [8]; vancomycin […] (Conc./MIC 1/4))
0 µg/mL: Antibiotic MIC, Erythromycin (E. coli [3]; erythromycin combined with peptide at 8 μg/ml) | Antibiotic MIC, Erythromycin (E. coli [3]; erythromycin combined with peptide at 16 μg/ml) | Antibiotic MIC, Erythromycin (E. coli [3]; erythromycin combined with peptide at 32 μg/ml) | Antibiotic MIC, Erythromycin (E. coli [3]; erythromycin combined with peptide at 64 μg/ml) | Antibiotic MIC, Linezolid (E. coli [3]; linezolid combined with peptide at 8 μg/ml) | Antibiotic MIC, Linezolid (E. coli [3]; linezolid combined with peptide at 16 μg/ml) | Antibiotic MIC, Linezolid (E. coli [3]; linezolid combined with peptide at 32 μg/ml) | Antibiotic MIC, Linezolid (E. coli [3]; linezolid combined with peptide at 64 μg/ml) | Antibiotic MIC, Vancomycin (E. coli [3]; vancomycin combined with peptide at 8 μg/ml) | Antibiotic MIC, Vancomycin (E. coli [3]; vancomycin combined with peptide at 16 μg/ml) | Antibiotic MIC, Vancomycin (E. coli [3]; vancomycin combined with peptide at 32 μg/ml) | Antibiotic MIC, Vancomycin (E. coli [3]; vancomycin combined with peptide at 64 μg/ml) | Antibiotic MIC, Erythromycin (MDREC 1229 [4]; [14]) | Antibiotic MIC, Linezolid (MDREC 1229 [4]; [14]) | Antibiotic MIC, Vancomycin (MDREC 1229 [4]; [14]) | Antibiotic MIC, Erythromycin (MDREC 1229 [4]; [15]) | Antibiotic MIC, Linezolid (MDREC 1229 [4]; [15]) | Antibiotic MIC, Vancomycin (MDREC 1229 [4]; [15]) | Antibiotic MIC, Erythromycin (MDREC 1229 [4]; [16]) | Antibiotic MIC, Linezolid (MDREC 1229 [4]; [16]) | Antibiotic MIC, Vancomycin (MDREC 1229 [4]; [16]) | Antibiotic MIC, Erythromycin (A. baumannii [5]; [22]) | Antibiotic MIC, Linezolid (A. baumannii [5]; [22]) | Antibiotic MIC, Vancomycin (A. baumannii [5]; [22]) | Antibiotic MIC, Erythromycin (A. baumannii [5]; [23]) | Antibiotic MIC, Linezolid (A. baumannii [5]; [23]) | Antibiotic MIC, Vancomycin (A. baumannii [5]; [23]) | Antibiotic MIC, Erythromycin (A. baumannii [5]; [24]) | Antibiotic MIC, Linezolid (A. baumannii [5]; [24]) | Antibiotic MIC, Vancomycin (A. baumannii [5]; [24]) | Peptide MIC (E. coli [6]; with Erythromycin […] (Conc./MIC 1)) | Peptide MIC (E. coli [6]; with Linezolid […] (Conc./MIC 1)) | Peptide MIC (E. coli [6]; with Vancomycin 1024 μg/ml (Conc./MIC 1)) | Peptide MIC during treatment with antibiotic (MDREC 1229 [7]; erythromycin […] (Conc./MIC 1)) | Peptide MIC during treatment with antibiotic (MDREC 1229 [7]; [26]) | Peptide MIC during treatment with antibiotic (A. baumannii [8]; [32]) | Peptide MIC during treatment with antibiotic (A. baumannii [8]; linezolid […] (Conc./MIC 1)) | Peptide MIC during treatment with antibiotic (A. baumannii [8]; [28]) | Peptide MIC during treatment with erythromycin (MDRAB 12035; [32]) | Peptide MIC during treatment with linezolid (MDRAB 12035; [26])
higher level than the PapMA-1 peptide: Synergistic effect of antibacterial activity with existing antibiotics compared with PapMA-1 (E. coli [3]; E. coli and MDREC1229) | Synergistic effect of antibacterial activity with existing antibiotics compared with PapMA-1 (A. baumannii [5]; A. baumannii and MDRAB 12035)
8 µg/mL: Minimal inhibitory concentration MIC (E. coli [1]) | Antibiotic MIC, Linezolid (E. coli [3]; linezolid combined with peptide at 4 μg/ml) | Antibiotic MIC, Vancomycin (E. coli [3]; vancomycin combined with peptide at 6 μg/ml) | Antibiotic MIC, Erythromycin (MDREC 1229 [4]; [11]) | Antibiotic MIC, Vancomycin (MDREC 1229 [4]; [13]) | Antibiotic MIC, Erythromycin (A. baumannii [5]; [18]) | Antibiotic MIC, Linezolid (A. baumannii [5]; [19]) | Antibiotic MIC, Vancomycin (A. baumannii [5]; [19])
2 µg/mL: Antibiotic MIC, Erythromycin (E. coli [3]; erythromycin combined with peptide at 4 μg/ml) | Antibiotic MIC, Linezolid (E. coli [3]; linezolid combined with peptide at 6 μg/ml) | Antibiotic MIC, Erythromycin (A. baumannii [5]; [19]) | Antibiotic MIC, Vancomycin (A. baumannii [5]; [20]) | Peptide MIC during treatment with antibiotic (MDREC 1229 [7]; erythromycin 32 μg/ml (Conc./MIC 1/8)) | Peptide MIC during treatment with antibiotic (MDREC 1229 [7]; erythromycin 64 μg/ml (Conc./MIC 1/4)) | Peptide MIC during treatment with antibiotic (MDREC 1229 [7]; linezolid […] (Conc./MIC 1/4)) | Peptide MIC during treatment with antibiotic (MDREC 1229 [7]; [27]) | Peptide MIC during treatment with antibiotic (A. baumannii [8]; [30]) | Peptide MIC during treatment with antibiotic (A. baumannii [8]; linezolid 32 μg/ml (Conc./MIC 1/8)) | Peptide MIC during treatment with antibiotic (A. baumannii [8]; linezolid 64 μg/ml (Conc./MIC 1/4)) | Peptide MIC during treatment with antibiotic (A. baumannii [8]; vancomycin […] (Conc./MIC 1/8)) | Peptide MIC during treatment with erythromycin (MDRAB 12035; [30]) | Peptide MIC during treatment with linezolid (MDRAB 12035; [25]) | Peptide MIC during treatment with vancomycin (MDRAB 12035; vancomycin […] (Conc./MIC 1/4)) | Peptide MIC during treatment with vancomycin (MDRAB 12035; vancomycin […] (Conc./MIC 1/8))
4 µg/mL: Antibiotic MIC, Erythromycin (MDREC 1229 [4]; [12]) | Peptide MIC during treatment with antibiotic (MDREC 1229 [7]; [25]) | Peptide MIC during treatment with antibiotic (MDREC 1229 [7]; vancomycin […] (Conc./MIC 1/4)) | Peptide MIC during treatment with antibiotic (MDREC 1229 [7]; vancomycin […] (Conc./MIC 1/8)) | Peptide MIC during treatment with antibiotic (A. baumannii [8]; [29]) | Peptide MIC during treatment with erythromycin (MDRAB 12035; [29])
32 µg/mL: Antibiotic MIC, Erythromycin (E. coli [3]; erythromycin combined with peptide at 2 μg/ml) | Antibiotic MIC, Erythromycin (MDREC 1229 [4]; [10]) | Antibiotic MIC, Linezolid (MDREC 1229 [4]; [11]) | Antibiotic MIC, Vancomycin (MDREC 1229 [4]; [12]) | Antibiotic MIC, Linezolid (A. baumannii [5]; [18])
1 µg/mL: Antibiotic MIC, Erythromycin (E. coli [3]; erythromycin combined with peptide at 6 μg/ml) | Antibiotic MIC, Erythromycin (MDREC 1229 [4]; [13]) | Antibiotic MIC, Linezolid (A. baumannii [5]; [20]) | Antibiotic MIC, Vancomycin (A. baumannii [5]; [21]) | Peptide MIC during treatment with antibiotic (MDREC 1229 [7]; erythromycin […] (Conc./MIC 1/2)) | Peptide MIC during treatment with antibiotic (MDREC 1229 [7]; linezolid […] (Conc./MIC 1/2)) | Peptide MIC during treatment with antibiotic (MDREC 1229 [7]; [28]) | Peptide MIC during treatment with antibiotic (A. baumannii [8]; [31]) | Peptide MIC during treatment with antibiotic (A. baumannii [8]; linezolid […] (Conc./MIC 1/2)) | Peptide MIC during treatment with erythromycin (MDRAB 12035; [31]) | Peptide MIC during treatment with linezolid (MDRAB 12035; linezolid […] (Conc./MIC 1/2)) | Peptide MIC during treatment with linezolid (MDRAB 12035; linezolid […] (Conc./MIC 1/4)) | Peptide MIC during treatment with vancomycin (MDRAB 12035; [27]) | Peptide MIC during treatment with vancomycin (MDRAB 12035; [28])
0.25 µg/mL: Antibiotic MIC, Erythromycin (A. baumannii [5]; [21]) | Peptide MIC during treatment with antibiotic (A. baumannii [8]; [27])
>128 µg/mL: Minimal inhibitory concentration MIC (B. subtilis) | Minimal inhibitory concentration MIC (S. aureus) | Antibiotic MIC, Linezolid (E. coli [3]; linezolid combined with peptide at 1 μg/ml) | Antibiotic MIC, Vancomycin (E. coli [3]; vancomycin combined with peptide at 1 μg/ml) | Antibiotic MIC, Linezolid (MDREC 1229 [4]; [9]) | Antibiotic MIC, Vancomycin (MDREC 1229 [4]; [9]) | Antibiotic MIC, Vancomycin (MDREC 1229 [4]; [10]) | Antibiotic MIC, Vancomycin (A. baumannii [5]; [17])
64 µg/mL: Antibiotic MIC, Vancomycin (A. baumannii [5]; [18])
16 µg/mL: Minimal inhibitory concentration MIC (MDREC 1229 [2]) | Peptide MIC, peptide alone (MDREC 1229 [2]) | Minimal inhibitory concentration MIC (MDRAB 12036) | Minimal inhibitory concentration MIC (MDRST 8007) | Antibiotic MIC, Vancomycin (E. coli [3]; vancomycin combined with peptide at 4 μg/ml) | Antibiotic MIC, Linezolid (MDREC 1229 [4]; [12]) | Antibiotic MIC, Linezolid (MDREC 1229 [4]; [13]) | Antibiotic MIC, Erythromycin (A. baumannii [5]; [17])
128 µg/mL: Antibiotic MIC, Erythromycin (E. coli [3]; erythromycin combined with peptide at 1 μg/ml) | Antibiotic MIC, Linezolid (E. coli [3]; linezolid combined with peptide at 2 μg/ml) | Antibiotic MIC, Vancomycin (E. coli [3]; vancomycin combined with peptide at 2 μg/ml) | Antibiotic MIC, Erythromycin (MDREC 1229 [4]; [9]) | Antibiotic MIC, Linezolid (MDREC 1229 [4]; [10]) | Antibiotic MIC, Vancomycin (MDREC 1229 [4]; [11]) | Antibiotic MIC, Linezolid (A. baumannii [5]; [17])
